In brackets after ≈: the same amount, converted by molar mass. Read-outs that look alike come from different tables or passages of the source.
How the values were obtained:
[1] = target: T1, Bovine Serum Albumin (BSA) (Bos taurus, UniProt P02769); assay: Albumin affinity test by equilibrium dialysis (RED plate), ICP-MS analysis; details: compound 0.25 mM, BSA 0.6 mM, HEPES buffer pH 7.4, five hours, 37 °C
Protocol: (§1) The albumin affinity test was carried out by in-vitro studies using Thermo Scientific™ "Single-Use RED Plate with 8K MWCO Inserts" 96-well plate, Bovine Serum Albumin (BSA) and HEPES. The technique of the devices is based on the process of equilibrium dialysis. The tests were carried out in a HEPES buffer with a pH of 7.4. In a typical test, following the manufacturer's measurement procedure, 400 µL of a solution containing the compound to be studied and BSA in concentrations of 0.25 mM and 0.6 mM respectively, in HEPES buffer, are added to the sample well. Additionally, 600 µL of HEPES buffer is added in the buffer well. After shaking the system for five hours at 300 rpm at a constant temperature of 37 °C, the concentration of the compound in each well is analysed. This analysis was performed using an Agilent ICP-MS (7900 Series) and with these concentration data the percentage of affinity of the studied compounds was determined.

V79 fibroblast cultures = assay: IC50 in vitro by cell viability measurement; assay type: cell-based
Description: IC50 values were obtained by measuring cell viability in V79 fibroblast cultures as an alternative to animal experimentation. The values determined are summarized in the following table: Table 2: IC50 determination

[2] = Osmolality test with freezing point equipment; assay type: physicochemical; details: solutions at a concentration of 0.1 M
[3] = target: T1, Bovine Serum Albumin (BSA); details: 5 h, 0.25 mM, pH 7.4
Protocol: as §1

mice [4] = assay: MRI imaging in a 7T animal magnetic resonance equipment; assay type: in vivo
Protocol: The test was carried out in a 7T animal magnetic resonance equipment by administering the contrast medium containing the compound (8) at a dose of 0.1 mmol/Kg to mice.

mice [5] = assay: PET/CT imaging in an animal PET/CT scanner; assay type: in vivo; details: 130 µCi solution, gallium 68-labelled compound, Figure 7

T1 sequence (P02769 25-607): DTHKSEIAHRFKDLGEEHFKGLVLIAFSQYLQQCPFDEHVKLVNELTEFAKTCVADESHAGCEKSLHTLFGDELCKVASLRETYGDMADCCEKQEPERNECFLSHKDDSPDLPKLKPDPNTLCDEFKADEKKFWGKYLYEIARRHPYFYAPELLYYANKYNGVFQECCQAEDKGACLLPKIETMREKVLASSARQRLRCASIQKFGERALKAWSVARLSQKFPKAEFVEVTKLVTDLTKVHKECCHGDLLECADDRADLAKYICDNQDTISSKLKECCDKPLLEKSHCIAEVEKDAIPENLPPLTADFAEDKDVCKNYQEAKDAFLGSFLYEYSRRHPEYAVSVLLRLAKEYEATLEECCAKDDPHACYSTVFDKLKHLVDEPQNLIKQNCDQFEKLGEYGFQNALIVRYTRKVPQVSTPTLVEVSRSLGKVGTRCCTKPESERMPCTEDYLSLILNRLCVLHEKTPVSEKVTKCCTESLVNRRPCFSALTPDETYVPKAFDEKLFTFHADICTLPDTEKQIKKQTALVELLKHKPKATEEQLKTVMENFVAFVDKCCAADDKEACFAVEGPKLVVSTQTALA

Compound | Osmolality (mOs/Kg) [2] | IC50 (V79 fibroblast cultures) | other results
Europium {10-{2-{2-[2-(3-Carboxy-2,4,6-triiodophenylamino)-2-oxoethylamino] aminoethyl}-2-oxoethyl}-1,4,7,10-tetraaza-1-cyclodododecyl}-1,4,7-triacetate [Compound (16)] | 148.12 mOs/Kg | >75 mg/mL | –
Gadolinium {10-{2-[2-(3-acetylamino-2,4,6-triiodophenylamino) aminoethyl]-2-oxoethyl}-1,4,7,10-tetraaza-1-cyclodecyl}-1,4,7-triacetate [Compound (8)] | 117.58 mOs/Kg | >75 mg/mL | visualisation of the liver in MRI (mice [4]; additional study, MRI signal, figures 5 and 6): visualisation of the liver is possible; elimination route of the contrast medium (MRI) (mice [4]; mice, dose of 0.1 mmol/Kg, 7T MRI, figures 3 and 4): elimination via the kidneys
Gadolinium {10-{2-{2-[2-(3-Carboxy-2,4,6-triiodophenylamino)-2-oxoethylamino] aminoethyl}-2-oxoethyl}-1,4,7,10-tetraaza-1-cyclodododecyl}-1,4,7-triacetate [Compound (15)] | 155.38 mOs/Kg | >75 mg/mL | –
Gallium {10-{2-[2-(3-acetylamino-2,4,6-triiodophenylamino) aminoethyl]-2-oxoethyl}-1,4,7,10-tetraaza-1-cyclodecyl}-1,4,7-triacetate [Compound (7)] | 123.43 mOs/Kg | 8.64 mg/mL | organs differentiated in PET/CT images (mice [5]): heart, liver, kidneys and bladder are differentiated
Gallium {10-{2-{2-[2-(3-Carboxy-2,4,6-triiodophenylamino)-2-oxoethylamino] aminoethyl}-2-oxoethyl}-1,4,7,10-tetraaza-1-cyclodododecyl}-1,4,7-triacetate [Compound (14)] | 150.42 mOs/Kg | 10.12 mg/mL | –

More lines, main results first:

Osmolality (mOs/Kg) [2] | Compound | IC50 (V79 fibroblast cultures) | other results
93.33 mOs/Kg | O=C([O-])CN1CCN(CC(=O)[O-])CCN([C@H](CO)[C@H](O)CO)CCN(CC(=O)[O-])CC1.[Gd+3] (racemic) [Gadobutrol, reference compound] | >75 mg/mL | Albumin affinity (%) [1]: Not detectable
258.47 mOs/Kg | CC(=O)Nc1c(I)cc(I)c(C(=O)O)c1I [Acetrizoic acid, reference compound] | – | IC50 (V79 fibroblast cultures; read-out: IC50): 4.04 mg/mL (≈ 7.25 mM); Albumin affinity (%) [3]: 39.16%
125.12 mOs/Kg | Europium {10-{2-[2-(3-acetylamino-2,4,6-triiodophenylamino) aminoethyl]-2-oxoethyl}-1,4,7,10-tetraaza-1-cyclodecyl}-1,4,7-trioacetate [Compound (9)] | >75 mg/mL | –

Reference: patent EP4015509A1, “ORGANOMETALLIC COMPOUNDS AND THEIR USE AS MULTIMODAL CONTRASTING MEDIA FOR IMAGING DIAGNOSIS” (Justesa Imagen S.A.U, priority 2020, dated 2022)
